We go through 36 compounds from patent US8357703B2, “Pyridines” (Hoffmann-La Roche Inc., priority 2009, dated 2013).

The target in this assay is T1, human GABA A α5β3γ2 receptor (Homo sapiens, UniProt P18507+P31644).
T1 construct: expressed in transfected cells; host or cells: HEK293 (transiently transfected), membranes
Kind of assay: [3H]flumazenil competition binding to HEK293 cells expressing human GABA A receptors. The following applies: competition for [3H]flumazenil (0.5 nM for α5); HEK293 cells expressing human (transiently transfected) receptors; means of two determinations; read-out: hKi GABA Aα5. How it is done: The affinity of compounds at GABA A receptor subtypes was measured by competition for [^3H]flumazenil (85 Ci/mmol; Roche) binding to HEK293 cells expressing rat (stably transfected) or human (transiently transfected) receptors of composition α1β3γ2, α2β3γ2, α3β3γ2 and α5β3γ2.
Cell pellets were suspended in Krebs-tris buffer (4.8 mM KCl, 1.2 mM CaCl2, 1.2 mM MgCl2, 120 mM NaCl, 15 mM Tris; pH 7.5; binding assay buffer), homogenized by polytron for ca. 20 sec on ice and centrifuged for 60 min at 4° C. (50000 g; Sorvall, rotor: SM24=20000 rpm). The cell pellets were resuspended in Krebs-tris buffer and homogenized by polytron for ca. 15 sec on ice. Protein was measured (Bradford method, Bio-Rad) and aliquots of 1 mL were prepared and stored at −80° C.
Radioligand binding assays were carried out in a volume of […] (96-well plates) which contained […] of cell membranes, [^3H]flumazenil at a concentration of 1 nM for α1, α2, α3 subunits and 0.5 nM for α5 subunits and the test compound in the range of […]. Nonspecific binding was defined by 10^−5 M diazepam and typically represented less than 5% of the total binding. Assays were incubated to equilibrium for 1 hour at 4° C. and harvested onto GF/C uni-filters (Packard) by filtration using a Packard harvester and washing with ice-cold wash buffer (50 mM Tris; pH 7.5). After drying, filter-retained radioactivity was detected by liquid scintillation counting. Ki values were calculated using Excel-Fit (Microsoft) and are the means of two determinations.
Representative test results, obtained by the above described assay measuring binding affinity to HEK293 cells expressing human (h) receptors, are shown in table 1 below.
With `CCCCc1noc(C)c1COc1ccc(C(=O)NC(C)CO)cn1` (racemic) [Example 9, Rac-6-((3-Butyl-5-methyl-isoxazol-4-yl)methoxy)-N-(2-hydroxy-1-methyl-ethyl)-nicotinamide], the Ki came out at 3.1 nM.
The result for `CCCCc1noc(C)c1COc1ccc(C(=O)NC(C)CO)cn1` (single isomer, unassigned; (+)) [Example 11, (+)-6-((3-Butyl-5-methyl-isoxazol-4-yl)methoxy)-N-(2-hydroxy-1-methyl-ethyl)-nicotinamide] reads 7.3 nM; that for `CCCc1noc(C)c1COc1ccc(C(=O)NC(C)C)cn1` [Example 1, N-Isopropyl-6-((5-methyl-3-propyl-isoxazol-4-yl)methoxy)-nicotinamide], 46 nM; that for `CCCc1noc(C)c1COc1ccc(C(=O)NC2CCOCC2)cn1` [Example 2, 6-((5-Methyl-3-propyl-isoxazol-4-yl)methoxy)-N-(tetrahydro-pyran-4-yl)-nicotinamide], 50.8 nM.
The result for `Cc1onc(CCC(F)(F)F)c1COc1ccc(C(=O)NC(C)C)cn1` [Example 3, N-Isopropyl-6-[(5-methyl-3-(3,3,3-trifluoro-propyl)-isoxazol-4-yl)methoxy]-nicotinamide] reads 49 nM.
Turning to `Cc1onc(CCC(F)(F)F)c1COc1ccc(C(=O)NC2CCOCC2)cn1` [Example 4, 6-[(5-Methyl-3-(3,3,3-trifluoro-propyl)-isoxazol-4-yl)methoxy]-N-(tetrahydro-pyran-4-yl)-nicotinamide], the Ki is 39.9 nM.
The result for `CCCCc1noc(C)c1COc1ccc(C(=O)NC(C)C)cn1` [Example 5, 6-((3-Butyl-5-methyl-isoxazol-4-yl)methoxy)-N-isopropyl-nicotinamide] reads 4.1 nM; that for `CCCCc1noc(C)c1COc1ccc(C(=O)NC2CC2)cn1` [Example 6, 6-((3-Butyl-5-methyl-isoxazol-4-yl)methoxy)-N-cyclopropyl-nicotinamide], 6.5 nM.
The value for `CCCCc1noc(C)c1COc1ccc(C(=O)NC2CCOCC2)cn1` [Example 7, 6-((3-Butyl-5-methyl-isoxazol-4-yl)methoxy)-N-(tetrahydro-pyran-4-yl)-nicotinamide] was 5.2 nM; that for `CCCCc1noc(C)c1COc1ccc(C(=O)NC(C)(C)CO)cn1` [Example 8, 6-((3-Butyl-5-methyl-isoxazol-4-yl)methoxy)-N-(2-hydroxy-1,1-dimethyl-ethyl)-nicotinamide] was 15.2 nM; that for `CCCCc1noc(C)c1COc1ccc(C(=O)NCCO)cn1` [Example 10, 6-((3-Butyl-5-methyl-isoxazol-4-yl)methoxy)-N-(2-hydroxy-ethyl)-nicotinamide] was 5.7 nM.
The value for `CCCCc1noc(C)c1COc1ccc(C(=O)N[C@@H](C)CO)cn1` [Example 12, (−)-6-((3-Butyl-5-methyl-isoxazol-4-yl)methoxy)-N-(2-hydroxy-1-methyl-ethyl)-nicotinamide] was 3.8 nM; that for `CCCCc1noc(C)c1COc1ccc(C(=O)NCC(C)(C)O)cn1` [Example 13, 6-((3-Butyl-5-methyl-isoxazol-4-yl)methoxy)-N-(2-hydroxy-2-methyl-propyl)-nicotinamide] was 9.2 nM.
Turning to `CCCCc1noc(C)c1COc1ccc(C(=O)NC2CCOC2)cn1` (stereo not drawn) [Example 14, 6-((3-Butyl-5-methyl-isoxazol-4-yl)methoxy)-N-(tetrahydro-furan-3-yl)-nicotinamide], the Ki was determined as 5 nM.
The result for `CCCCc1noc(C)c1COc1ccc(C(=O)NC(CO)CO)cn1` [Example 15, 6-((3-Butyl-5-methyl-isoxazol-4-yl)methoxy)-N-(2-hydroxy-1-hydroxymethyl-ethyl)-nicotinamide] reads 5.7 nM; that for `CCCCc1noc(C)c1COc1ccc(C(=O)N[C@H]2CCOC2)cn1` [Example 16, 6-((3-Butyl-5-methyl-isoxazol-4-yl)methoxy)-N-(S)-tetrahydro-furan-3-yl-nicotinamide], 6.5 nM.
As to `CCCCc1noc(C)c1COc1ccc(C(=O)NCC(C)O)cn1` (stereo not drawn) [Example 17, 6-((3-Butyl-5-methyl-isoxazol-4-yl)methoxy)-N-(2-hydroxy-propyl)-nicotinamide], the Ki was found to be 5.2 nM.
As for `CCCCc1noc(C)c1COc1ccc(C(=O)N2CCS(=O)(=O)CC2)cn1` [Example 18, [6-((3-Butyl-5-methyl-isoxazol-4-yl)methoxy)-pyridin-3-yl]-(1,1-dioxo-1,6-thiomorpholin-4-yl)-methanone], the Ki is 21.1 nM.
Take `CCCCc1noc(C)c1COc1ccc(C(=O)N[C@@H](C)C(F)(F)F)cn1` [Example 19, 6-((3-Butyl-5-methyl-isoxazol-4-yl)methoxy)-N—((S)-2,2,2-trifluoro-1-methyl-ethyl)-nicotinamide]: the Ki came out at 8.4 nM.
The result for `CCCCc1noc(C)c1COc1ccc(C(=O)N[C@@H](C)C(F)(F)F)cn1` [Example 20, 6-((3-Butyl-5-methyl-isoxazol-4-yl)methoxy)-N—((S)-2,2,2-trifluoro-1-methyl-ethyl)-nicotinamide] reads 7.5 nM.
The result for `CCCCc1noc(C)c1COc1ccc(C(=O)NC2(C)CC2)cn1` [Example 21, 6-((3-Butyl-5-methyl-isoxazol-4-yl)methoxy)-N-(1-methyl-cyclopropyl)-nicotinamide] reads 11.5 nM; that for `CCCCc1noc(C)c1COc1ccc(C(=O)N2CCC2)cn1` [Example 22, Azetidin-1-yl-[6-((3-butyl-5-methyl-isoxazol-4-yl)methoxy)-pyridin-3-yl]-methanone], 34.5 nM; that for `CCCCc1noc(C)c1COc1ccc(C(=O)Nc2cnn(C)c2)cn1` [Example 23, 6-((3-Butyl-5-methyl-isoxazol-4-yl)methoxy)-N-(1-methyl-1H-pyrazol-4-yl)-nicotinamide], 2.2 nM.
For the compound `CCCCc1noc(C)c1COc1ccc(C(=O)Nc2ccn(C)n2)cn1` [Example 24, 6-((3-Butyl-5-methyl-isoxazol-4-yl)methoxy)-N-(1-methyl-1H-pyrazol-3-yl)-nicotinamide], the Ki came to 10.7 nM.
On to `CCCCc1nocc1COc1ccc(C(=O)NC(C)C)cn1` [Example 25, 6-((3-Butyl-isoxazol-4-yl)methoxy)-N-isopropyl-nicotinamide], for which the Ki turned out to be 41.1 nM.
The result for `CCCCc1nocc1COc1ccc(C(=O)NCC(F)(F)F)cn1` [Example 26, 6-((3-Butyl-isoxazol-4-yl)methoxy)-N-(2,2,2-trifluoro-ethyl)-nicotinamide] reads 44.9 nM; that for `CCCCc1nocc1COc1ccc(C(=O)NC2CCOCC2)cn1` [Example 27, 6-((3-Butyl-isoxazol-4-yl)methoxy)-N-(tetrahydro-pyran-4-yl)-nicotinamide], 51.9 nM; that for `CCCCc1nocc1COc1ccc(C(=O)N[C@@H](C)CO)cn1` [Example 28, 6-((3-Butyl-isoxazol-4-yl)methoxy)-N—((S)-2-hydroxy-1-methyl-ethyl)-nicotinamide], 36.1 nM.
Regarding `CCCC(C)c1noc(C)c1COc1ccc(C(=O)NC(C)C)cn1` (stereo not drawn) [Example 29, N-Isopropyl-6-[(5-methyl-3-(1-methyl-butyl)-isoxazol-4-yl)methoxyl]-nicotinamide], the Ki came out at 70.9 nM.
`Cc1onc(C2CCCC2)c1COc1ccc(C(=O)NC(C)C)cn1` [Example 30, 6-((3-Cyclopentyl-5-methyl-isoxazol-4-yl)methoxy)-N-isopropyl-nicotinamide]: the Ki was 37.6 nM.
The value for `Cc1onc(C2CCCCC2)c1COc1ccc(C(=O)NC(C)C)cn1` [Example 31, 6-((3-Cyclohexyl-5-methyl-isoxazol-4-yl)methoxy)-N-isopropyl-nicotinamide] was 4.3 nM; that for `Cc1onc(C2CCCCC2)c1COc1ccc(C(=O)NC2CC2)cn1` [Example 32, 6-((3-Cyclohexyl-5-methyl-isoxazol-4-yl)methoxy)-N-cyclopropyl-nicotinamide] was 4.7 nM; that for `Cc1onc(C2CCCCC2)c1COc1ccc(C(=O)NC2CCOCC2)cn1` [Example 33, 6-((3-Cyclohexyl-5-methyl-isoxazol-4-yl)methoxy)-N-(tetrahydro-pyran-4-yl)-nicotinamide] was 5.2 nM.
The result for `Cc1onc(C2CCCCC2)c1COc1ccc(C(=O)NCCO)cn1` [Example 34, 6-((3-Cyclohexyl-5-methyl-isoxazol-4-yl)methoxy)-N-(2-hydroxy-ethyl)-nicotinamide] reads 5.8 nM; that for `Cc1onc(C2CCCCC2)c1COc1ccc(C(=O)NC(C)(C)CO)cn1` [Example 35, 6-((3-Cyclohexyl-5-methyl-isoxazol-4-yl)methoxy)-N-(2-hydroxy-1,1-dimethyl-ethyl)-nicotinamide], 20.3 nM; that for `Cc1onc(C2CCCCC2)c1COc1ccc(C(=O)NC(C)CO)cn1` (stereo not drawn) [Example 36, 6-((3-Cyclohexyl-5-methyl-isoxazol-4-yl)methoxy)-N-(2-hydroxy-1-methyl-ethyl)-nicotinamide], 3.7 nM.
